7 compounds from US11951113B2, “Synergestic combination composition comprising a steroidal saponin, a first polyphenolic compound and a second polyphenolic compound” (NEURALIA, priority 2018, dated 2024) can be followed below.

For this data set, the system named is primary cortical neurons injured by glutamate. As to the kind of experiment: Neuroprotection of primary cortical neurons injured by glutamate: neuron survival and neurite network (MAP-2 staining). It is filed as cell-based, rat. The note with it: for effect on neuritic network / effect on neuron survival: glutamate 40 μM. The method, then:
Rat cortical neurons were cultured as described by Singer et al., (J. Neuroscience, (1999), 19(7), 2455-2463) and Callizot et al. (J. Neurosc., (2013), Res. 91(5), 706-716).
Pregnant females (Wistar; JanvierLabs, St Berthevin, France) at 15 days of gestation were killed by cervical dislocation. Foetuses were collected and immediately placed in ice-cold L15 Leibovitz medium (Pan Biotech, Aidenbach, Germany) with a 2% penicillin (10,000 U/ml) and streptomycin (10 mg/ml) solution (PS; Pan Biotech, Aidenbach, Germany) and 1% bovine serum albumin (BSA; Pan Biotech, Aidenbach, Germany). Cortex was treated for 20 min at 37° C. with a trypsin-EDTA (Pan Biotech, Aidenbach, Germany) solution at a final concentration of 0.05% trypsin and 0.02% EDTA. The dissociation was stopped by addition of Dulbecco's modified Eagle's medium (DMEM) with 4.5 g/liter of glucose (Pan Biotech, Aidenbach, Germany), containing DNAse I grade II (final concentration 0.5 mg/ml; Pan Biotech, Germany) and 10% fetal calf serum (FCS; Invitrogen, Cergy Pointoise, France). Cells were mechanically dissociated by three forced passages through the tip of a 10-ml pipette. Cells were then centrifuged at 515 g for 10 min at 4° C. The supernatant was discarded, and the pellet was resuspended in a defined culture medium consisting of Neurobasal medium (Invitrogen, Cergy Pointoise, France) with a 2% solution of B27 supplement (Invitrogen, Cergy Pointoise, France), 2 mmol/liter of L-glutamine (Pan Biotech, Aidenbach, Germany), 2% of PS solution, and 10 ng/ml of brain-derived neurotrophic factor (BDNF; Pan Biotech, Aidenbach, Germany). Viable cells were counted in a Neubauer cytometer, using the trypan blue exclusion test. The cells were seeded at a density of 30,000 per well in 96-well plates precoated with poly-L-lysine (Corning Biocoat, Tewksbury, USA) and were cultured at 37° C. in an air (95%)-CO2 (5%) incubator. The medium was changed every 2 days. The cortical neurons were intoxicated with glutamate solutions (see below) after 13 days of culture.
On day 13, glutamate (Sigma Aldrich, Lyon, France) was added into cell culture to a final concentration of 40 μM diluted in control medium in presence or absence of test compounds for 20 min. After 20 min, the cells were washed-out and new fresh medium containing or not NSPXX-E2 or NSPXX-E1 extracts was added for 48 h additional time.
After 48 hours of glutamate intoxication, cells were fixed by a cold solution of ethanol (95%, Sigma) and acetic acid (5%, Sigma) for 5 min at −20° C. After permeabilization with 0.1% of saponin (Sigma), cells were incubated for 2 h with mouse monoclonal antibody anti microtubule-associated-protein 2 (MAP-2; Sigma) at dilution of 1/400 in PBS (Pan biotech) containing 1% foetal calf serum (Invitrogen) and 0.1% of saponin.
For each condition 6 wells were assessed, 30 pictures per well were taken using MetaXpress (molecular device) with 20× magnification (30 pictures at X20 representing ˜80% of the total well surface), to assess neurite network (MAP-2 staining). Analysis of picture was done using MetaXpress custum module editor software (molecular device), the total neurite length per picture was recorded). A mean neurite length of the ten pictures was automatically calculated per well, then one data was provided per well (total of 6 raw data were provided per condition).
For each condition 6 wells were assessed, 30 pictures per well were taken using MetaXpress (molecular device) with 20× magnification to assess cell bodies (MAP-2 staining). Analysis of picture was done using MetaXpress custum module editor software (molecular device), the number of neurons per picture was recorded. A mean of neuron number of the […] pictures was automatically calculated per well, then one data was provided per well (total of 6 raw data were provided per condition).
All values were expressed as mean+/−s.e.mean. […]

Turning to `COc1cc(/C=C/C(=O)O)ccc1O` [FA, ferulic acid], the “effect on neuritic network” value (1 μM-100 μM, 20 min) was “significant protective effect”.

As to catechin, the “effect on neuritic network” value is reported as “protective effect” (1 nM-1 μM, 20 min); “significant protective effect” (between 500 nM and 5 μM, 20 min). Moreover, under “between 100 nM and 1 μM, 20 min”, the “effect on neuron survival” value is given as “significant protective effect”.

In the case of `O=C(O)c1cc(O)c(O)c(O)c1` [Gallic acid, gallic acid], the viability at 10 µM (Rattus norvegicus, Primary cortical neuron, 20 min) was roughly 80%. The “effect on neuritic network” value (between 10 pM and 1 μM, 20 min) is given as “significant protective effect”.

On to `C[C@@H]1CC[C@@]2(OC1)O[C@H]1C[C@H]3[C@@H]4CC=C5C[C@@H](O[C@@H]6O[C@H](CO)[C@@H](O[C@@H]7O[C@@H](C)[C@H](O)[C@@H](O)[C@H]7O)[C@H](O)[C@H]6O[C@@H]6O[C@@H](C)[C@H](O)[C@@H](O)[C@H]6O)CC[C@]5(C)[C@H]4CC[C@]3(C)[C@H]1[C@@H]2C` [DIOS, dioscin], for which, for the setting “6.3 nM-630 nM, 20 min”, the “effect on neuritic network” value was “significant protective effect”.

In the case of `O=c1c(O)c(-c2ccc(O)c(O)c2)oc2cc(O)cc(O)c12` [quercetin], for the setting “100 nM and 1 μM, glutamate injury”, the “effect on neurite network” value is recorded as “significant protective effect”.

Consider `C[C@@H]1CC[C@@]2(OC1)O[C@H]1C[C@H]3[C@@H]4CC=C5C[C@@H](O)CC[C@]5(C)[C@H]4CC[C@]3(C)[C@H]1[C@@H]2C` [DIOSG, diosgenin], for which the “effect on neuritic network” value (3 pM-30 pM, 20 min) is “significant protective effect”. Further, the “reduction of the concentration of diosgenin compared to diosgenin used alone” value (diosgenin combined with caffeic acid or ferulic acid) came to 10 fold.

Regarding `C[C@H]1CC[C@@]2(OC1)O[C@H]1C[C@H]3[C@@H]4CC[C@@H]5C[C@@H](O)CC[C@]5(C)[C@H]4CC[C@]3(C)[C@H]1[C@@H]2C` [SAR, sarsasapogenin], the “effect on neuritic network” value (100 pM-100 nM, 20 min) is recorded as “protective effect”; the “effect on neuritic network” value (between 100 pM and 10 nM, 20 min) is reported as “significant protective effect”. Also, the “effect on neuron survival” value (100 nM, 20 min) is given as “significant protective effect”. Besides, the “toxicity for cortical neurons and for neuritic network” value (1 μmol/L or 10 μmol/L) is recorded as “toxic”. Also, where the note is “at the highest concentrations tested”, the “toxicity on cortical neurons” value is recorded as “toxic”. Moreover, the “reduction of the steroidal saponin concentration compared to sarsasapogenin used alone” value (sarsasapogenin combined with caffeic acid or ferulic acid) stood at 10 fold.

As usually defined, the viability is a read-out of living cells in per cent, often relative to untreated cells. High values mean less harm to the cells, low ones more harm to the cells.
